SMILES strings stand for the structures. Where “and” joins values, the source holds several entries; their conditions need not be identical. Identical values can stand only once. Inconclusive results and toxic doses are left out.

In this test the test system is L1210 leukemia ip in BDF1 mice, survival T/C. Description: NCI In Vivo Anticancer Drug Screen. Data for tumor model L1210 Leukemia (intraperitoneal) in B6D2F1 (BDF1) mice. The following applies: endpoint: mean survival time, higher = longer survival. An outline of the steps: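 Value reflects the ratio of survival in compound-treated mice to survival in vehicle-treated controls, with both groups carrying the same transplanted tumor.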

Where [1] appears, read: dose: 10.0 mg/kg/injection, schedule: Q01DX001 (ip), vehicle: saline.
Setting [2] is: dose: 20.0 mg/kg/injection, schedule: Q01DX001 (ip), vehicle: saline.
The mark [3] stands for this setting: dose: 100.0 mg/kg/injection, schedule: Q01DX001 (ip), vehicle: saline.
Setting [4] is: dose: 100.0 mg/kg/injection, schedule: Q04DX003 (ip), vehicle: Klucel (hydroxypropylcellulose) (HPC).
The mark [5] stands for this setting: dose: 200.0 mg/kg/injection, schedule: Q04DX003 (ip), vehicle: Klucel (hydroxypropylcellulose) (HPC).
The mark [6] stands for this setting: dose: 400.0 mg/kg/injection, schedule: Q04DX003 (ip), vehicle: Klucel (hydroxypropylcellulose) (HPC).
[7] abbreviates: dose: 100.0 mg/kg/injection, schedule: Q01DX001 (ip), vehicle: other.
The mark [8] stands for this setting: dose: 100.0 mg/kg/injection, schedule: Q04DX003 (ip), vehicle: saline with Tween-80.
Setting [9] is: dose: 200.0 mg/kg/injection, schedule: Q01DX001 (ip), vehicle: other.
Setting [10] is: dose: 200.0 mg/kg/injection, schedule: Q04DX003 (ip), vehicle: saline with Tween-80.
The mark [11] stands for this setting: dose: 400.0 mg/kg/injection, schedule: Q01DX001 (ip), vehicle: other.
The mark [12] stands for this setting: dose: 400.0 mg/kg/injection, schedule: Q04DX003 (ip), vehicle: saline with Tween-80.
Where [13] appears, read: dose: 200.0 mg/kg/injection, schedule: Q01DX001 (ip), vehicle: saline.
Where [14] appears, read: dose: 400.0 mg/kg/injection, schedule: Q01DX001 (ip), vehicle: saline.

For `c1ccc(N2CCNCC2)cc1`, the T/C (dose: 5.0 mg/kg/injection, schedule: Q01DX001 (ip), vehicle: saline) was 98 % of control [middle of 5 runs]; the T/C (dose: 6.25 mg/kg/injection, schedule: Q01DX001 (ip), vehicle: saline) is 97 % of control; the T/C (dose: 6.25 mg/kg/injection, schedule: Q04DX003 (ip), vehicle: saline) is 99 % of control; the T/C under setting [1] is 102 % of control [middle of 5 runs]; the T/C (dose: 12.5 mg/kg/injection, schedule: Q01DX001 (ip), vehicle: saline) was 92 % of control; the T/C (dose: 12.5 mg/kg/injection, schedule: Q04DX003 (ip), vehicle: saline) is 99 % of control. The T/C was 98 % of control [middle of 5 runs] under setting [2]; 97 % of control (dose: 25.0 mg/kg/injection, schedule: Q01DX001 (ip), vehicle: saline); 96 % of control (dose: 25.0 mg/kg/injection, schedule: Q04DX003 (ip), vehicle: saline); 104 % of control [middle of 5 runs] (dose: 40.0 mg/kg/injection, schedule: Q01DX001 (ip), vehicle: saline); 92 % of control and 98 % of control and 115 % of control (dose: 80.0 mg/kg/injection, schedule: Q01DX001 (ip), vehicle: saline); 101 % of control under setting [3].

In the case of `CC1C(c2ccccc2)N1P(=O)(c1ccccc1)c1ccccc1` (configuration not stated), the T/C (dose: 100.0 mg/kg/injection, schedule: Q04DX003 (sc), vehicle: carboxymethylcellulose (CMC)) is 102 % of control; the T/C (dose: 200.0 mg/kg/injection, schedule: Q04DX003 (sc), vehicle: carboxymethylcellulose (CMC)) was 104 % of control; the T/C (dose: 400.0 mg/kg/injection, schedule: Q04DX003 (sc), vehicle: carboxymethylcellulose (CMC)) was 98 % of control.

Turning to `CC(=O)OCC(=O)[C@@]1(O)[C@H](C)C[C@H]2[C@@H]3C=C(C)C4=Cc5c(cnn5-c5ccc(F)cc5)C[C@]4(C)[C@H]3[C@@H](O)C[C@@]21C`, the T/C was 120 % of control (dose: 0.62 mg/kg/injection, schedule: Q01DX015 (sc), vehicle: steriod suspending solution); 117 % of control (dose: 1.25 mg/kg/injection, schedule: Q01DX015 (sc), vehicle: steriod suspending solution); 102 % of control (dose: 2.5 mg/kg/injection, schedule: Q01DX015 (sc), vehicle: steriod suspending solution); 117 % of control and 123 % of control (dose: 5.0 mg/kg/injection, schedule: Q01DX015 (sc), vehicle: steriod suspending solution); 100 % of control (dose: 6.25 mg/kg/injection, schedule: Q01DX009 (sc), vehicle: steriod suspending solution); 111 % of control (dose: 10.0 mg/kg/injection, schedule: Q01DX015 (sc), vehicle: steriod suspending solution). For the same compound, the T/C by setting is: (dose: 20.0 mg/kg/injection, schedule: Q01DX015 (sc), vehicle: steriod suspending solution) 103 % of control; (dose: 40.0 mg/kg/injection, schedule: Q01DX015 (sc), vehicle: steriod suspending solution) 101 % of control; (dose: 50.0 mg/kg/injection, schedule: Q04DX003 (sc), vehicle: steriod suspending solution) 110 % of control; (dose: 100.0 mg/kg/injection, schedule: Q01DX001 (ip), vehicle: steriod suspending solution) 98 % of control; (dose: 100.0 mg/kg/injection, schedule: Q04DX003 (sc), vehicle: steriod suspending solution) 108 % of control; (dose: 160.0 mg/kg/injection, schedule: Q01DX015 (sc), vehicle: steriod suspending solution) 91 % of control. Further, the T/C is, setting by setting: (dose: 200.0 mg/kg/injection, schedule: Q01DX001 (ip), vehicle: steriod suspending solution) 91 % of control; (dose: 200.0 mg/kg/injection, schedule: Q04DX003 (sc), vehicle: steriod suspending solution) 103 % of control.

`CC(=O)NOCc1ccc([N+](=O)[O-])cc1`: the T/C is 95 % of control under setting [4], 100 % of control under setting [5] and 97 % of control under setting [6].

As to `CCOC(=O)Nc1cc(Cl)c([N+](=O)[O-])c(N)n1`, the T/C is, setting by setting: (dose: 50.0 mg/kg/injection, schedule: Q01DX001 (ip), vehicle: other) 106 % of control; under setting [7], 101 % of control; under setting [8], 92 % of control; under setting [9], 109 % of control; under setting [10], 116 % of control; under setting [11], 104 % of control. Moreover, the T/C under setting [12] is 104 % of control.

In the case of `CCO/N=C(/C)C(C)SC#N` (configuration not stated), the T/C under setting [1] was 97 % of control and the T/C under setting [2] was 105 % of control.

In the case of `NC(N)=N/N=C/C(=N\N=C(N)N)C(O)CO` (configuration not stated), the T/C was 109 % of control and 100 % of control (dose: 75.0 mg/kg/injection, schedule: Q01DX001 (ip), vehicle: saline); 105 % of control and 106 % of control (dose: 150.0 mg/kg/injection, schedule: Q01DX001 (ip), vehicle: saline); 101 % of control and 105 % of control (dose: 300.0 mg/kg/injection, schedule: Q01DX001 (ip), vehicle: saline).

In the case of `CC1CNC(c2ccc(NC(=O)c3ccc(C(=O)Nc4ccc(C5=NC(C)CN5)cc4)c(NC(=O)Nc4cccc(C5=NC(C)CN5)c4)c3)cc2)=N1` (configuration not stated), the T/C (dose: 1.88 mg/kg/injection, schedule: Q01DX Z (ip), vehicle: saline) was 116 % of control; the T/C (dose: 3.75 mg/kg/injection, schedule: Q01DX Z (oral), vehicle: saline) is 103 % of control; the T/C (dose: 7.5 mg/kg/injection, schedule: Q01DX Z (ip), vehicle: saline) is 153 % of control; the T/C (dose: 7.5 mg/kg/injection, schedule: Q01DX Z (oral), vehicle: saline) is 106 % of control; the T/C (dose: 15.0 mg/kg/injection, schedule: Q01DX Z (oral), vehicle: saline) is 101 % of control; the T/C (dose: 30.0 mg/kg/injection, schedule: Q01DX Z (oral), vehicle: saline) was 117 % of control. The T/C (dose: 62.5 mg/kg/injection, schedule: Q01DX010 (oral), vehicle: saline) was 99 % of control; the T/C (dose: 125.0 mg/kg/injection, schedule: Q01DX010 (oral), vehicle: saline) is 100 % of control; the T/C (dose: 250.0 mg/kg/injection, schedule: Q01DX010 (oral), vehicle: saline) was 92 % of control.

`CCN(CC)c1ccc(N=C2C=C(C(=O)Nc3cccc(Cl)c3)C(=O)c3ccccc32)c(C)c1`: the T/C under setting [7] is 92 % of control, the T/C under setting [9] is 92 % of control and the T/C under setting [11] is 96 % of control.

On to `c1nc(SCC2CO2)c2ncn(CC3CO3)c2n1` (configuration not stated), for which the T/C reads like this: under setting [3], 107 % of control; under setting [13], 101 % of control; under setting [14], 97 % of control.

`CCOC(=O)CNC(=O)Cn1ccc(=O)[nH]c1=O`: the T/C (dose: 50.0 mg/kg/injection, schedule: Q01DX001 (ip), vehicle: saline) was 96 % of control; the T/C under setting [3] is 98 % of control; the T/C under setting [13] is 98 % of control.

Take `COc1ccccc1CC(=O)O`: the T/C is 100 % of control under setting [3]; 101 % of control under setting [8]; 103 % of control under setting [13]; 105 % of control under setting [10]; 108 % of control under setting [14]; 101 % of control under setting [12].

Consider `Cc1ccc(NC(=O)c2ccc([N+](=O)[O-])cc2)cc1Cl`, for which the T/C (dose: 25.0 mg/kg/injection, schedule: Q01DX009 (ip), vehicle: Klucel (hydroxypropylcellulose) (HPC)) is 95 % of control; the T/C (dose: 50.0 mg/kg/injection, schedule: Q01DX009 (ip), vehicle: Klucel (hydroxypropylcellulose) (HPC)) was 103 % of control; the T/C (dose: 100.0 mg/kg/injection, schedule: Q01DX001 (ip), vehicle: Klucel (hydroxypropylcellulose) (HPC)) was 95 % of control; the T/C (dose: 100.0 mg/kg/injection, schedule: Q01DX009 (ip), vehicle: Klucel (hydroxypropylcellulose) (HPC)) was 103 % of control; the T/C under setting [4] is 93 % of control; the T/C (dose: 200.0 mg/kg/injection, schedule: Q01DX001 (ip), vehicle: Klucel (hydroxypropylcellulose) (HPC)) was 106 % of control. The T/C was 95 % of control under setting [5]; 98 % of control (dose: 400.0 mg/kg/injection, schedule: Q01DX001 (ip), vehicle: Klucel (hydroxypropylcellulose) (HPC)); 98 % of control under setting [6].

Values taken from PubChem BioAssay AID248 (DTP/NCI, 2004).
